| SMILES | melting point [°C] |
| --- | --- |
| CCCCn1cnc2c(OCC)nc(Nc3ccc(OC)nc3)nc21 [compound 56, 2-[(2-Methoxypyrid-5-yl)amino]-6-ethoxy-9-butyl-9H-purine] | 170 to 172 |
| CCCCn1cnc2c(OCCOC)nc(Nc3ccc(OC)nc3)nc21 [compound 57, 2-[(2-Methoxypyrid-5-yl)amino]-6-(2-methoxyethoxy)-9-butyl-9H-purine] | 138 to 140 |
| CCCCn1cnc2c(OCCF)nc(Nc3ccc(OC)nc3)nc21 [compound 58, 2-[(2-Methoxypyrid-5-yl)amino]-6-(2-fluoroethoxy)-9-butyl-9H-purine] | 163 to 164 |
| CCCCn1cnc2c(OCC(F)F)nc(Nc3ccc(OC)nc3)nc21 [compound 59, 2-[(2-Methoxypyrid-5-yl)amino]-6-(2,2-difluoroethoxy)-9-butyl-9H-purine] | 165 to 167 |
| CCCCn1cnc2c(OCC(C)C)nc(Nc3ccc(OC)nc3)nc21 [compound 60, 2-[(2-Methoxypyrid-5-yl)amino]-6-(2-methylprop-1-oxy)-9-butyl-9H-purine] | 88 to 90 |
| C=CCOc1nc(Nc2ccc(OC)nc2)nc2c1ncn2CCCC [compound 61, 2-[(2-Methoxypyrid-5-yl)amino]-6-(2-propen-1-oxy)-9-butyl-9H-purine] | 174 to 176 |
| CCCCn1cnc2c(OCC3CCCO3)nc(Nc3ccc(OC)nc3)nc21 (stereo not drawn) [compound 62, 2-[(2-Methoxypyrid-5-yl)amino]-6-tetrahydrofurfuryloxy-9-butyl-9H-purine] | 147 to 149 |
| CCCCn1cnc2c(OCc3ccccn3)nc(Nc3ccc(OC)nc3)nc21 [compound 63, 2-[(2-Methoxypyrid-5-yl)amino]-6-(pyrid-2-ylmethoxy)-9-butyl-9H-purine] | 150 to 153 |
| CCCCn1cnc2c(Oc3ccccc3)nc(Nc3ccc(OC)nc3)nc21 [compound 64, 2-[(2-Methoxypyrid-5-yl)amino]-6-phenoxy-9-butyl-9H-purine] | 146 to 148 |
| CCCn1cnc2c(OCC(C)C)nc(Nc3ccc(OC)nc3)nc21 [compound 65, 2-[(2-Methoxypyrid-5-yl)amino]-6-(2-methylprop-1-oxy)-9-propyl-9H-purine] | 113 to 115 |
| CCCn1cnc2c(Oc3ccccc3)nc(Nc3ccc(OC)nc3)nc21 [compound 66, 2-[(2-Methoxypyrid-5-yl)amino]-6-phenoxy-9-propyl-9H-purine] | 188 to 190 |
| C=C(C)COc1nc(Nc2ccc(OC)nc2)nc2c1ncn2CCCC [compound 67, 2-[(2-Methoxypyrid-5-yl)amino]-6-(2-methyl-2-propen-1-oxy)-9-butyl-9H-purine] | 131 to 133 |
| CCCCn1cnc2c(OCC3CC3)nc(Nc3ccc(OC)nc3)nc21 [compound 68, 2-[(2-Methoxypyrid-5-yl)amino]-6-cyclopropylmethoxy-9-butyl-9H-purine] | 148 to 150 |
| C=CCSc1nc(Nc2ccc(OC)nc2)nc2c1ncn2CCCC [compound 69, 2-[(2-Methoxypyrid-5-yl)amino]-6-allylthio-9-butyl-9H-purine] | 107 to 109 |
| CCCCn1cnc2c(OCC)nc(Nc3ccc(OCC)nc3)nc21 [compound 71, 2-[(2-Ethoxypyrid-5-yl)amino]-6-ethoxy-9-butyl-9H-purine] | 167 to 169 |

Other lines, results leading:

| melting point [°C] | SMILES |
| --- | --- |
| 123 to 125 | CCCCn1cnc2c(OCCOC)nc(Nc3ccc(OCC)nc3)nc21 [compound 72, 2-[(2-Ethoxypyrid-5-yl)amino]-6-(2-methoxyethoxy)-9-butyl-9H-purine] |
| 158 to 160 | C=CCOc1nc(Nc2ccc(OCC)nc2)nc2c1ncn2CCCC [compound 73, 2-[(2-Ethoxypyrid-5-yl)amino]-6-(2-propen-1-oxy)-9-butyl-9H-purine] |
| 156 to 157 | CCCCn1cnc2c(OCCF)nc(Nc3ccc(OCC)nc3)nc21 [compound 74, 2-[(2-Ethoxypyrid-5-yl)amino]-6-(2-fluoroethoxy)-9-butyl-9H-purine] |
| 108 to 110 | C=C(C)COc1nc(Nc2ccc(OCC)nc2)nc2c1ncn2CCCC [compound 75, 2-[(2-Ethoxypyrid-5-yl)amino]-6-(2-methyl-2-propen-1-oxy)-9-butyl-9H-purine] |
| 116 to 118 | CCCCn1cnc2c(OCc3cccs3)nc(Nc3ccc(OCC)nc3)nc21 [compound 76, 2-[(2-Ethoxypyrid-5-yl)amino]-6-(thien-2-ylmethoxy)-9-butyl-9H-purine] |
| 112 to 114 | C=C(C)COc1nc(Nc2ccc(OCC)nc2)nc2c1ncn2CCC [compound 77, 2-[(2-Ethoxypyrid-5-yl)amino]-6-(2-methyl-2-propen-1-oxy)-9-propyl-9H-purine] |
| 151 to 153 | C#CCOc1nc(Nc2ccc(OCC)nc2)nc2c1ncn2CCCC [compound 78, 2-[(2-Ethoxypyrid-5-yl)amino]-6-(2-propyn-1-oxy)-9-butyl-9H-purine] |
| 151 to 152 | CCCCn1cnc2c(OCC(F)F)nc(Nc3ccc(OCC)nc3)nc21 [compound 80, 2-[(2-Ethoxypyrid-5-yl)amino]-6-(2,2-difluoroethoxy)-9-butyl-9H-purine] |
| 77 to 80 | CCCCn1cnc2c(OCC(=O)OCC)nc(Nc3ccc(OCC)nc3)nc21 [compound 82, 2-[(2-Ethoxypyrid-5-yl)amino]-6-carboethoxymethoxy-9-butyl-9H-purine] |
| 96 to 98 | CCCCn1cnc2c(OCC(C)C)nc(Nc3ccc(OCC)nc3)nc21 [compound 83, 2-[(2-Ethoxypyrid-5-yl)amino]-6-(2-methylprop-1-oxy)-9-butyl-9H-purine] |
| 166 to 168 | CCCCn1cnc2c(OCCO)nc(Nc3ccc(OCC)nc3)nc21 [compound 84, 2-[(2-Ethoxypyrid-5-yl)amino]-6-(2-hydroxyethoxy)-9-butyl-9H-purine] |
| 186 to 188 | CCCCn1cnc2c(OCC)nc(Nc3cnc4ccccc4c3)nc21 [compound 86, 2-[(Quinolin-3-yl)amino]-6-ethoxy-9-butyl-9H-purine] |
| 215 to 220 | CCCCn1cnc2c(OCCC)nc(Nc3cnc4ccccc4c3)nc21 [compound 87, 2-[(Quinolin-3-yl)amino]-6-propoxy-9-butyl-9H-purine] |
| 161 to 163 | CCCCn1cnc2c(OCCOC)nc(Nc3cnc4ccccc4c3)nc21 [compound 88, 2-[(Quinolin-3-yl)amino]-6-(2-methoxyethoxy)-9-butyl-9H-purine] |
| 68 to 71 | CCCCn1cnc2c(OCC(C)C)nc(Nc3cnc4ccccc4c3)nc21 [compound 89, 2-[(Quinolin-3-yl)amino]-6-(2-methylprop-1-oxy)-9-butyl-9H-purine] |
| 106 to 108 | C=C(C)COc1nc(Nc2cnc3ccccc3c2)nc2c1ncn2CCCC [compound 91, 2-[(Quinolin-3-yl)amino]-6-(2-methyl-2-propen-1-oxy)-9-butyl-9H-purine] |
| 188 to 192 | C=CCOc1nc(Nc2cnc3ccccc3c2)nc2c1ncn2CCCC [compound 92, 2-[(Quinolin-3-yl)amino]-6-(2-propen-1-oxy)-9-butyl-9H-purine] |
| 181 to 183 | CCCCn1cnc2c(OCCF)nc(Nc3cnc4ccccc4c3)nc21 [compound 93, 2-[(Quinolin-3-yl)amino]-6-(2-fluoroethoxy)-9-butyl-9H-purine] |
| 160 to 161 | CCCCn1cnc2c(OC)nc(Nc3ccc4c(c3)OCO4)nc21 [compound 95, 2-[(3,4-Methylenedioxyphenyl)amino]-6-methoxy-9-butyl-9H-purine] |
| 150 to 152 | CCCCn1cnc2c(OCC)nc(Nc3ccc4ncsc4c3)nc21 [compound 96, 2-[(Benzothiazol-6-yl)amino]-6-ethoxy-9-butyl-9H-purine] |
| 129 to 130 | CCCCn1cnc2c(OCC)nc(NCc3ccc(OC)cc3)nc21 [compound 97, 2-[(4-Methoxybenzyl)amino]-6-ethoxy-9-butyl-9H-purine] |
